# Like-named read-outs stand apart in the source and are kept apart here.
# Target: T1, Strep-TM4SF5 obtained from HEK293FT (Homo sapiens, UniProt O14894)
# T1 construct: expressed in transfected cells; host or cells: HEK293FT, transient transfection (48 h); protein captured on streptavidin agarose from the cell extract
# T1 sequence (O14894 1-197): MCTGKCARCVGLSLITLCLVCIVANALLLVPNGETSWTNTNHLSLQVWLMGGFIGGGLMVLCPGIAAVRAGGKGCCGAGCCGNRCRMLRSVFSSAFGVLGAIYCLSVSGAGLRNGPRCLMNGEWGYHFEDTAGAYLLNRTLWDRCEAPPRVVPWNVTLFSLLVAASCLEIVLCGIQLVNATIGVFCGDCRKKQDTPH
# Assay: Binding of 14C-labelled ST-5-002 to pulled-down Strep-TM4SF5
# Experimental: For Huh7KO cells, stable cell lines were established by infecting with a retrovirus inducing the expression of pBabe-HA-EV or pBabe-HA-TM4SF5. Cell extracts were obtained, and extracts containing 0.2 or 0.25 mg of protein were reacted with an anti-HA antibody and HA-tagged TM4SF5, or with streptavidin agarose resin for Strep-PD-L1 or Strep-TM4SF5 at 4°C for 2 hours for pulldown. Subsequently, in the presence or absence of cold ST-5-002 (400 µM), the samples were treated with ^14C-labelled ST-5-002 (10 or 25 µM) and reacted at 4°C for 1 hour, after which radioactive isotope values were repeatedly measured using a TriCarb scintillation counter (PerkinElmer, Waltham, MA).
# After culturing HEK293FT cells transfected with Strep-EV or Strep-TM4SF5 expression vectors, or Huh7KO cells stably expressing pBabe-HA-EV or pBabe-HA-TM4SF5, cell extracts were obtained. Extracts containing 1 mg of protein were pulled down by reacting with streptavidin agarose resin for Strep-tagged TM4SF5 or with an anti-HA antibody for HA-tagged TM4SF5 at 4°C for 4 hours. The pulled-down proteins were treated with ^14C-labelled ST-5-002 at various concentrations (10 nM, 100 nM, 1 µM, 5 µM, 10 µM, 50 µM) and reacted at 4°C for 1 hour, after which radioactive isotope values were repeatedly measured using a TriCarb scintillation counter (PerkinElmer, Waltham, MA). The EC50 was calculated by normalizing the average radioactive isotope value of TM4SF5 obtained through the measurements by dividing it by the average value of EV.
# (a) Expression vectors for a control vector, TM4SF1, TM4SF5 WT, and R113Q, C118/145A, H127A, and N138A mutants of TM4SF5 were injected into the HEK293FT cell line, which was confirmed not to express TM4SF5, and allowed to express for 48 hours. (b) Huh7KO cell lines, in which TM4SF5 was knocked out in Huh7, were stably infected with a retrovirus encoding pBabe-EV or pBabe-TM4SF5-HA. […] For the experimental samples of each condition, radioactive isotope values were repeatedly measured using a TriCarb scintillation counter (PerkinElmer, Waltham, MA).
compound,measurement,setting,value
"Cc1ccc(C(=O)Nc2ccc(-c3cc(-c4ccc(O)cc4)no3)cc2)cc1 [ST-5-002, N-(4-(3-(4-hydroxyphenyl)isoxazole-5-yl)phenyl)-4-methylbenzamide]",EC50,"14C-labelled ST-5-002, Strep-TM4SF5, 4°C, 1 hour (FIG. 19a), read-out: EC50 of binding to TM4SF5",8.87 µM
same,binding of 14C-labelled ST-5-002 compared to the control and TM4SF1,Strep-TM4SF5 from HEK293FT (FIG. 19a),bound
same,EC50,"range depending on the cell source and the type of tag (Strep-TM4SF5 and HA-TM4SF5), read-out: EC50 values of binding to TM4SF5",0.85 to 8.8 µM

# Source: patent EP4772500A1, “NOVEL ISOXAZOLE COMPOUND AS TM4SF5-SPECIFIC INHIBITOR AND USE THEREOF” (Seoul National University R&DB Foundation, priority 2023, dated 2025)
